According to paper PMC12406203 (Journal of Medicinal Chemistry, 2025):

Tests used:
Assay in all cases: KINOMEscan
Assay type in all cases: binding
[1] = molecular target: T1, PLK4 (Homo sapiens, UniProt O00444)
T1 construct: purchased Eurofins DiscoverX, LLC; host or cells: E. coli BL21-derived host (T7 phage) or HEK-293
T1 sequence (O00444 1-970): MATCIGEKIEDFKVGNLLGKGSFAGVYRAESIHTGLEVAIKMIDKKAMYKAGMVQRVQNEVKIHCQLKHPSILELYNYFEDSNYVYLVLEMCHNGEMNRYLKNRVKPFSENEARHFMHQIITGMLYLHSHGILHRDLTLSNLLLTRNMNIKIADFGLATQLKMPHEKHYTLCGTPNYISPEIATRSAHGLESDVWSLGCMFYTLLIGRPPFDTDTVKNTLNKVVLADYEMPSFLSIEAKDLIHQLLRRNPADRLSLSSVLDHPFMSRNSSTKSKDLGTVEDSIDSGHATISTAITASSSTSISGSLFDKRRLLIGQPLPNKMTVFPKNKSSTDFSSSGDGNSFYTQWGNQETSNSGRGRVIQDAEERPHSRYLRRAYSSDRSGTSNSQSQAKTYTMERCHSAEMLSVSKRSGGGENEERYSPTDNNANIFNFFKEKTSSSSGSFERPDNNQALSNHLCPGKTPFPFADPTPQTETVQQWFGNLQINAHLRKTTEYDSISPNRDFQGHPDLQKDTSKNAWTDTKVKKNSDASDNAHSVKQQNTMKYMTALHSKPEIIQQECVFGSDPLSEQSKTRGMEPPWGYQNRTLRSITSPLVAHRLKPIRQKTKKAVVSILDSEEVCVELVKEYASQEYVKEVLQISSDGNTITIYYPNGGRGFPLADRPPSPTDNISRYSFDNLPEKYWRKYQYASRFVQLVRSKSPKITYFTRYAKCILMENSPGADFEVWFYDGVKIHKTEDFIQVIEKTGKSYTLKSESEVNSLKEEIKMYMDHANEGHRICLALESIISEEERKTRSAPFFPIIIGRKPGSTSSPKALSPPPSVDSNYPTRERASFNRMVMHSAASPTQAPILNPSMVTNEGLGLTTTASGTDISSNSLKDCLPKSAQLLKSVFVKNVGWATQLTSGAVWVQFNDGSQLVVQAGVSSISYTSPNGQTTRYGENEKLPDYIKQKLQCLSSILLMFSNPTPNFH

[2] = molecular target: T2, EGFR(L858R) (Homo sapiens, UniProt P00533, L858R)
T2 construct: purchased Eurofins DiscoverX, LLC; host or cells: E. coli (T7 phage) or HEK-293

[3] = molecular target: T3, TSSK1B (Homo sapiens, UniProt Q9BXA7)
T3 construct: purchased Eurofins DiscoverX, LLC; host or cells: E. coli BL21-derived host (T7 phage) or HEK-293
T3 sequence (Q9BXA7 1-367): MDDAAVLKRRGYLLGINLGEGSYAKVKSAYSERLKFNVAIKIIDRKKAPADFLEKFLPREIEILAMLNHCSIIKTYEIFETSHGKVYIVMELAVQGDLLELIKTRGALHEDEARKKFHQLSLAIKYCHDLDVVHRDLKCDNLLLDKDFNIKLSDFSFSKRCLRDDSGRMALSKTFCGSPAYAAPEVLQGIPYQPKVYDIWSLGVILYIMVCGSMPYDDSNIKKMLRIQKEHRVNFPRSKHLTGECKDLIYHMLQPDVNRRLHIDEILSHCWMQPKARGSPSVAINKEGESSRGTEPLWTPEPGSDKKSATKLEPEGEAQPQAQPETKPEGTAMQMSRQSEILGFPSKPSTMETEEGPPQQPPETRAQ

[4] = molecular target: T4, PLK1 (Homo sapiens, UniProt P53350)
T4 construct: purchased Eurofins DiscoverX, LLC; host or cells: E. coli BL21-derived host (T7 phage) or HEK-293
T4 sequence (P53350 whole entry): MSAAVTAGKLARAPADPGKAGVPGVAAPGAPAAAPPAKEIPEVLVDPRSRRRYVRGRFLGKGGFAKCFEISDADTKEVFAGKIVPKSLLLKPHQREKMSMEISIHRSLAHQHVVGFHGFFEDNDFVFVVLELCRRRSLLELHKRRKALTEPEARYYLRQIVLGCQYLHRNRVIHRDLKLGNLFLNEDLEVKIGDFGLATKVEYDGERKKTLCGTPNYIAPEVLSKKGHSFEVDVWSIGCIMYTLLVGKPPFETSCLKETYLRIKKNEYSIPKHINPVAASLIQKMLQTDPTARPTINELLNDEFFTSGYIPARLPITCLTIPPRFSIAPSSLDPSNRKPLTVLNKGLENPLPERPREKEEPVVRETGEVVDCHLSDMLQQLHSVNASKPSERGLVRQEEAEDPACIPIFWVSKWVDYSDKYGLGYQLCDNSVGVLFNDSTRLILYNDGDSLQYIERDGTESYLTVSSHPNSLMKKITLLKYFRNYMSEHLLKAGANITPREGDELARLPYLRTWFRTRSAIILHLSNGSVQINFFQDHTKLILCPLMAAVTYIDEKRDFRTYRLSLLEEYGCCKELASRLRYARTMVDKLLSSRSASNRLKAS

[5] = molecular target: T5, MAPKAPK2 (Homo sapiens, UniProt P49137)
T5 construct: purchased Eurofins DiscoverX, LLC; host or cells: E. coli (BL21-derived, T7 phage) or HEK-293
T5 sequence (P49137 whole entry): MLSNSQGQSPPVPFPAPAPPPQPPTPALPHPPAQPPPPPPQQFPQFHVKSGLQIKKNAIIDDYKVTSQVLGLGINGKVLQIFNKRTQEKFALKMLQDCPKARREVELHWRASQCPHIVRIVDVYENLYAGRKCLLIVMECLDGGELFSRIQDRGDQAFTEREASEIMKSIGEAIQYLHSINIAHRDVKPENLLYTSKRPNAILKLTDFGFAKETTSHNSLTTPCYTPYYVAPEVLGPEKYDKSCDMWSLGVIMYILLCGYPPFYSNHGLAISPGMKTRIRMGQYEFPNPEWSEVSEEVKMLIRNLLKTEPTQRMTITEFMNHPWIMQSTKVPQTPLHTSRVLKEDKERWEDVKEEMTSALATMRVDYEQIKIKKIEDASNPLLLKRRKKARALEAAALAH

[6] = molecular target: T6, PIM2 (Homo sapiens, UniProt Q9P1W9)
T6 construct: purchased Eurofins DiscoverX, LLC; host or cells: E. coli BL21-derived host (T7 phage) or HEK-293
T6 sequence (Q9P1W9 whole entry): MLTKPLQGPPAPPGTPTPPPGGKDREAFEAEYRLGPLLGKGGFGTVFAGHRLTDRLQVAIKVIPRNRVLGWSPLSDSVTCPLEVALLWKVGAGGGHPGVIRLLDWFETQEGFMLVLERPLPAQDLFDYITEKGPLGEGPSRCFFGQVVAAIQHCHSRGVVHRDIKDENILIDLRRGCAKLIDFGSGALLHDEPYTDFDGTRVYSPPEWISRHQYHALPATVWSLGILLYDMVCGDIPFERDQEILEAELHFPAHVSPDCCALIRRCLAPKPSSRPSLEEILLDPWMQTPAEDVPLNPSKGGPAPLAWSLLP

[7] = molecular target: T7, ACVR1B (Homo sapiens, UniProt P36896)
T7 construct: purchased Eurofins DiscoverX, LLC; host or cells: E. coli BL21-derived (T7 phage) or HEK-293
T7 sequence (P36896 24-505): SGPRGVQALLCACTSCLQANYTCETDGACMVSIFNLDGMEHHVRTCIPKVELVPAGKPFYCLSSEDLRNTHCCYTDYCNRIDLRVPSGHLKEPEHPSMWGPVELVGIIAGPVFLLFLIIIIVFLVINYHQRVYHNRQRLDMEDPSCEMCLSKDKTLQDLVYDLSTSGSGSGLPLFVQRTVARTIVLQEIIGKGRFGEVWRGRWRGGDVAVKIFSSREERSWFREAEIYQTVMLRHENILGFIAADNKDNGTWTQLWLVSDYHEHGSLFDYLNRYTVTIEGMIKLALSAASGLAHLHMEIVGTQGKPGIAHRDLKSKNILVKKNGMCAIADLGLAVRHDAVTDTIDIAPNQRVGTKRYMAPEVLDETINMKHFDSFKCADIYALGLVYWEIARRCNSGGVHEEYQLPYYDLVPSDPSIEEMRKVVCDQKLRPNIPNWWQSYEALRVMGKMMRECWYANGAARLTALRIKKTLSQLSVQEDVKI

[8] = molecular target: T8, PKACα (Homo sapiens, UniProt P17612)
T8 construct: purchased Eurofins DiscoverX, LLC; host or cells: E. coli BL21-derived host (T7 phage) or HEK-293

Compound	RA @ 1000nM [1] [%]	RA @ 10000nM [1] [%]	RA @ 1000nM [2] [%]	RA @ 10000nM [2] [%]	RA @ 1000nM [3] [%]	RA @ 10000nM [3] [%]	RA @ 1000nM [4] [%]	RA @ 10000nM [4] [%]	RA @ 1000nM [5] [%]	RA @ 10000nM [5] [%]	RA @ 1000nM [6] [%]	RA @ 10000nM [6] [%]	RA @ 1000nM [7] [%]	RA @ 10000nM [7] [%]	RA @ 1000nM [8] [%]	RA @ 10000nM [8] [%]
CC(C)Cn1ncc2cc(Cc3ccc(F)cc3F)c(C(=O)NCCN(C)C)cc21 [Compound 94, 5-(2,4-Difluorobenzyl)-N-(2-(dimethylamino)ethyl)-1-isobutyl-1H-indazole-6-carboxamide]	100	100	100	66	77	89	100	100	100	84	100	100	100	100	100	96
CN(C)CCNC(=O)c1cc2c(cnn2CC2CCCCC2)cc1Cc1ccc(F)cc1F [Compound 95, 1-(Cyclohexylmethyl)-5-(2,4-difluorobenzyl)-N-(2-(dimethylamino)ethyl)-1H-indazole-6-carboxamide]	100	100	100	100	100	79	100	100	100	100	100	100	100	100	100	94
